Active and inactive are the calls of the source.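 How the source made its calls: active means a tumour-causing dose and a tumour site recorded for mice in at least one sex group; inconclusive means only government mouse studies exist and were judged inadequate; inactive means mouse studies exist but none gave tumours.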
Test system: mouse carcinogenicity bioassay, TD50 from CPDB
Assay: DSSTox (CPDBAS) Carcinogenic Potency Database Summary Mouse Bioassay Results
Description: The Carcinogenic Potency Database (CPDB) is a unique and widely used international resource of the results of over 6500 chronic, long-term animal cancer tests on over 1500 chemical substances. The CPDB provides easy access to the bioassay literature, with qualitative and quantitative analyses of both positive and negative experiments that have been published over the past 50 years in the general literature and by the National Cancer Institute/National Toxicology Program. The CPDB standardizes the diverse literature of cancer bioassays that vary widely in protocol, histopathological examination and nomenclature, and in the published author's choices of what information to provide in their papers. Results are reported in the CPDB for tests in rats, mice, hamsters, dogs, and nonhuman primates, and are based on the most positive result among all experiments for each sex-species. The DSSTox CPDBAS (all species) file incorporates data from the CPDB Summary Tables for the full list of over 1500 chemical substances tested in at least one species. Summary bioassay results for Mouse (TD50, tumor sites, male, female, both sexes) are provided in the CPDB Summary Tables and the DSSTox CPDBAS file for over 1000 chemical substances.
TD50 is a standardized quantitative measure of carcinogenic potency (analogous to an LD50) and is reported in the CPDB Summary Table for each species. Activity Score for actives is computed by mapping of LOG10 (1/TD50_Mouse_mmol) activity values spanning range [MIN, MAX] onto Integer 1-100 Activity Score range, where 100 is highest potency and 1 is lowest: Activity Score = 100 * INTEGER[(log10(1/Activity) - MIN)/(MAX […] MIN)]. If activity is reported but no TD50_Mouse_mmol value is computed, such as for a mixture, the Activity Score is assigned the activity value "50". […] Target sites are reported for each sex-species group with a positive result in the CPDB on the basis of a positive author's opinion for the particular site, using all results from both the general literature and NCI/NTP bioassays. If a chemical has two or more target sites listed, the results may be from different experiments, and a single site may be a target organ in more than one experiment, as well. Blank entry in TargetSites field indicates no results reported.

[1] = TD50_Mouse_Note: no positive results, TargetSites_Mouse_Female: no positive results
[2] = TD50_Mouse_Note: TD50 is harmonic mean of more than one positive test, TargetSites_Mouse_Female: liver

`NC(N)=O` was tested, and the outcome [1] was “inactive; no positive results”.
In the case of `Nc1ccccc1N`, the Potency [2] is reported as 4.06 mmol/kg/day.
For `Cc1cccc2ccccc12`, the outcome [1] was “inactive; no positive results”.
With `[Cl-].[Hg+]` the outcome (TD50_Mouse_Note: no positive results) was “inactive; no positive results”.
In the case of `O=C1C=CC(=O)C=C1`, the Potency (TD50_Mouse_Note: TD50 is harmonic mean of more than one positive test, TargetSites_Mouse_Female: hematopoietic system) is reported as 0.0469 mmol/kg/day.
For `CCCc1cc(=O)[nH]c(=S)[nH]1`, the Potency (TargetSites_Mouse_BothSexes: pituitary gland) was 2.4 mmol/kg/day.
`NC(=O)N/N=C/c1ccc([N+](=O)[O-])o1` showed a Potency (TargetSites_Mouse_Female: ovary) of 0.155 mmol/kg/day.
`C#C[C@]1(O)CC[C@H]2[C@@H]3CCC4=C(CCC(=O)C4)[C@H]3CC[C@@]21C` was tested, and the outcome (TD50_Mouse_Note: TD50 is harmonic mean of more than one positive test, greater than ten-fold variation among TD50 values for positive res, TargetSites_Mouse_Female: pituitary gland) was “active; no positive results” and the outcome [1] was “inactive; no positive results”.
For `CNC(=O)O/N=C/C(C)(C)SC`, the outcome [1] was “inactive; no positive results”.
Molecule `C=CF` has a Potency (TD50_Mouse_Note: TD50 is harmonic mean of more than one positive test, TargetSites_Mouse_Female: harderian gland, lung, mammary gland, vascular system) of 0.176 mmol/kg/day.
For `CCCNN`, the Potency (TD50_Mouse_Note: TD50 is harmonic mean of more than one positive test, TargetSites_Mouse_Female: lung) was 0.411 mmol/kg/day.
Molecule `CC(C)(C)O` has a Potency (TargetSites_Mouse_Female: thyroid gland) of 295 mmol/kg/day.
`CC(C)C/C=N/N(C)C=O` was tested, and the Potency (TD50_Mouse_Note: TD50 is harmonic mean of more than one positive test, TargetSites_Mouse_Female: gall bladder, liver, lung) was 0.0157 mmol/kg/day.
For `NC(=O)c1ccncc1`, the outcome [1] was “inactive; no positive results”.
With `CC(O)COC(C)(C)C` (centres undefined) the Potency [2] was 14.1 mmol/kg/day.
In the case of `CCC(Br)(CC)C(=O)NC(N)=O`, the outcome [1] is reported as “inactive; no positive results”.
With `C=CCl` the Potency (TD50_Mouse_Note: TD50 is harmonic mean of more than one positive test, TargetSites_Mouse_Female: lung, mammary gland, vascular system) was 0.349 mmol/kg/day.
Molecule `COc1ccc([N+](=O)[O-])cc1N` has a Potency (TargetSites_Mouse_Female: liver) of 22.1 mmol/kg/day.
`ClC(Cl)C(Cl)Cl` was tested, and the Potency [2] was 0.228 mmol/kg/day.
`CN(C)[C@@H]1C(=O)C(C(N)=O)=C(O)[C@@]2(O)C(=O)C3=C(O)c4c(O)cccc4[C@@](C)(O)[C@H]3[C@H](O)[C@@H]12` was tested, and the outcome [1] was “inactive; no positive results”.
`ClC1(Cl)C2(Cl)C3(Cl)C4(Cl)C(Cl)(Cl)C5(Cl)C3(Cl)C1(Cl)C5(Cl)C24Cl` (centres undefined) gave a Potency [2] of 0.00266 mmol/kg/day.
`N[C@@H](CCC(=O)NNc1ccc(CO)cc1)C(=O)O` was tested, and the outcome [1] was “inactive; no positive results”.
With `CC1CCC(C(C)C)C(O)C1` (centres undefined) the outcome [1] was “inactive; no positive results”.
With `Cc1cc(O)c2c(c1)C(=O)c1cc(O)cc(O)c1C2=O` the outcome [1] was “inactive; no positive results”.
With `O=CCBr` the outcome [1] was “inactive; no positive results”.
`CCc1nc(N)nc(N)c1-c1ccc(Cl)cc1` was tested, and the outcome [1] was “inactive; ntp bioassay inadequate”.
For `C=C(C)C(=O)OC`, the outcome [1] was “inactive; no positive results”.
In the case of `CN(C)C(=S)SC(=S)N(C)C`, the outcome [1] is reported as “inactive; no positive results”.
With `O=[N+]([O-])c1cc([As](=O)(O)O)ccc1O` the outcome [1] was “inactive; no positive results”.
With `c1ccc2cc(Nc3ccc(Nc4ccc5ccccc5c4)cc3)ccc2c1` the outcome [1] was “inactive; no positive results”.
With `CC(=O)NNc1ccccc1` the Potency (TD50_Mouse_Note: TD50 is harmonic mean of more than one positive test, TargetSites_Mouse_Female: vascular system) was 0.341 mmol/kg/day.
`c1ccc(Nc2ccc3ccccc3c2)cc1` was tested, and the outcome [1] was “inactive; no positive results”.
`Cl/C=C/CCl` was tested, and the Potency (TargetSites_Mouse_Female: lung, stomach, urinary bladder) was 0.447 mmol/kg/day and the Potency (TargetSites_Mouse_Female: no positive results) was 1.06 mmol/kg/day.
`CCCCC(CC)COC(=O)c1ccccc1C(=O)OCC(CC)CCCC` (centres undefined) showed a Potency [2] of 1.79 mmol/kg/day.
`CC(C)(C)NC[C@H](O)COc1cccc2c1CCCC2=O` was tested, and the outcome [1] was “inactive; no positive results”.
`CCc1ccccc1` was tested, and the Potency [2] was 15.1 mmol/kg/day.
Work on `O[C@@H]([C@H](O)[C@@H](O)CBr)[C@@H](O)CBr` yielded a Potency (TD50_Mouse_Note: positive test results only by intraperitoneal or intravenous injection, TD50 is harmonic mean of more than one positive, TargetSites_Mouse_Female: hematopoietic system, lung) of 0.0484 mmol/kg/day.
With `CCn1c2ccccc2c2cc(N)ccc21` the outcome (TD50_Mouse_Note: TD50 is harmonic mean of more than one positive test, TD50_Mouse_mmol was not calculated for this mixture, but Activiity, TargetSites_Mouse_Female: liver) was “active; liver” and the Potency [2] was 0.156 mmol/kg/day.
`[O-]/[N+](=N\O)c1ccccc1` was tested, and the Potency (TD50_Mouse_Note: TD50 is harmonic mean of more than one positive test, TargetSites_Mouse_Female: ear Zymbals gland, harderian gland, liver, vascular system) was 3.77 mmol/kg/day.
`Cc1cc2ncccc2c2nc(N)n(C)c12` was tested, and the Potency (TD50_Mouse_Note: TD50 is harmonic mean of more than one positive test, TargetSites_Mouse_Female: large intestine, liver, stomach) was 0.073 mmol/kg/day.
In the case of `Cc1c(N(C)CS(=O)(=O)O)c(=O)n(-c2ccccc2)n1C`, the Potency [2] is reported as 1.89 mmol/kg/day.

Source: PubChem BioAssay AID1199 (EPA DSSTox, 2008)
